Experimental data reported in ChEMBL document CHEMBL1201862, “PubChem BioAssay data set” (2004).
Activity calls are given as the source filed them.

Tests used:
[1] = Shn3 3'UTR reporter inhibitors, dose response, cell-based, Clone20 osteoblasts, firefly luciferase, cherry-picked (AID 624132); assay type: functional;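 note: firefly luciferase luminescence from reporter carrying the Shn3 3'UTR in osteoblasts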
INS1 = test: beta cell apoptosis inhibitors, cytokine rescue, dose response, luminescence, retest (AID 449756); assay type: functional, cell-based; details: Rattus norvegicus;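 note: cell death triggered by IL-1 beta plus TNF-alpha plus IFN-gamma mixture; protective hits raise ATP signal compared with cytokine alone wells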
Galanin receptor type 3 = Galanin receptor type 3 (Homo sapiens, UniProt O60755); test: Fluorescence-based cell-based primary high throughput dose response assay to identify antagonists of the Galanin Receptor 3 (GalR3).; assay type: functional
Sequence of Galanin receptor type 3 (O60755 whole entry): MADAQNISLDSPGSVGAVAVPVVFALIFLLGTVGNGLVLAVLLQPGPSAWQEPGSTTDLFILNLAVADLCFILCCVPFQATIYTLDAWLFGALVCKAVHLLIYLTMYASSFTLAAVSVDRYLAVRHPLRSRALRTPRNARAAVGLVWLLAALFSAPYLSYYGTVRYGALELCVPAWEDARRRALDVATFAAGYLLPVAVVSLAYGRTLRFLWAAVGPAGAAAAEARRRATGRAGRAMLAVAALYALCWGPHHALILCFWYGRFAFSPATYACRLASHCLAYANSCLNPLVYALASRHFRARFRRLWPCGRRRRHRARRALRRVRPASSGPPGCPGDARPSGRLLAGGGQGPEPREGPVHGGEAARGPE

[2] = molecular target: T1, COUP transcription factor 2 (Homo sapiens, UniProt P24468); test: Luminescence-based cell-based high throughput dose response assay to identify inhibitors of COUP-TFII (NR2F2).; assay type: functional;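 note: HEK293 cells transiently cotransfected with COUP-TFII expression vector and reporter; luciferase reporter luminescence driven by COUP-TFII from the pX2-168 reporter plasmid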
T1 sequence (P24468 whole entry): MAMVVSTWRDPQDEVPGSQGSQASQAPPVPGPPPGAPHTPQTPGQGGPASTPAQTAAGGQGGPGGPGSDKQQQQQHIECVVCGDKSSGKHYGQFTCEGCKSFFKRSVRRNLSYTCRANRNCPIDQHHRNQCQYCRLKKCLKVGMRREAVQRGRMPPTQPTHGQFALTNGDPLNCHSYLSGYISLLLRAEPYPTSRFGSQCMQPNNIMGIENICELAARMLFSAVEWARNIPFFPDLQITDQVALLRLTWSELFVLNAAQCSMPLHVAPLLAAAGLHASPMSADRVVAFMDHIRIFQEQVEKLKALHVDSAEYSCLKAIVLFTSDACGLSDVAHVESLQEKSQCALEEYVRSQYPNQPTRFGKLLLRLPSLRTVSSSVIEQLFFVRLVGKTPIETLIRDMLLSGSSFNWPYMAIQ

[3] = cytotoxicity in HEK-293T NF-kB-Luc cells, dose response, cytotoxicity control for B/T-cell NF-kB inhibitor project, cell-based, uHTS hits (AID 489019); assay type: functional;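 note: IC50 reflects cytotoxicity as loss of cell viability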
[4] = control 3'UTR Renilla luciferase suppression, dose response, counter-screen for Shn3 inhibitor project, cell-based, Clone20-Shn3RL, cherry-picked (AID 624133); assay type: functional
cells [5] = assay type: functional, cell-based; details: HEK-CNG
Jurkat = test: antigen receptor-induced NF-kB inhibitors, dose response, Jurkat, luciferase reporter, luminescence, B- and T-cell (AID 489004); assay type: functional, cell-based; details: Homo sapiens;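 note: NF-kB luciferase reporter Jurkat cells stimulated with PMA plus ionomycin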
A-375 [6] = test: A375 melanoma cell viability reduction, dose response, counter-screen for MITF modulator project, cherry-pick samples, set 2 (AID 540335); assay type: functional, cell-based; details: Homo sapiens
Beta-galactosidase = Beta-galactosidase (Escherichia coli, UniProt Q8VNN2); test: beta-galactosidase enzyme inhibitors and activators, dose response, artefact control for CCR6 antagonist project, biochemical, E. coli enzyme, set 3 (AID 504712); assay type: functional
Sequence of Beta-galactosidase (Q8VNN2 whole entry): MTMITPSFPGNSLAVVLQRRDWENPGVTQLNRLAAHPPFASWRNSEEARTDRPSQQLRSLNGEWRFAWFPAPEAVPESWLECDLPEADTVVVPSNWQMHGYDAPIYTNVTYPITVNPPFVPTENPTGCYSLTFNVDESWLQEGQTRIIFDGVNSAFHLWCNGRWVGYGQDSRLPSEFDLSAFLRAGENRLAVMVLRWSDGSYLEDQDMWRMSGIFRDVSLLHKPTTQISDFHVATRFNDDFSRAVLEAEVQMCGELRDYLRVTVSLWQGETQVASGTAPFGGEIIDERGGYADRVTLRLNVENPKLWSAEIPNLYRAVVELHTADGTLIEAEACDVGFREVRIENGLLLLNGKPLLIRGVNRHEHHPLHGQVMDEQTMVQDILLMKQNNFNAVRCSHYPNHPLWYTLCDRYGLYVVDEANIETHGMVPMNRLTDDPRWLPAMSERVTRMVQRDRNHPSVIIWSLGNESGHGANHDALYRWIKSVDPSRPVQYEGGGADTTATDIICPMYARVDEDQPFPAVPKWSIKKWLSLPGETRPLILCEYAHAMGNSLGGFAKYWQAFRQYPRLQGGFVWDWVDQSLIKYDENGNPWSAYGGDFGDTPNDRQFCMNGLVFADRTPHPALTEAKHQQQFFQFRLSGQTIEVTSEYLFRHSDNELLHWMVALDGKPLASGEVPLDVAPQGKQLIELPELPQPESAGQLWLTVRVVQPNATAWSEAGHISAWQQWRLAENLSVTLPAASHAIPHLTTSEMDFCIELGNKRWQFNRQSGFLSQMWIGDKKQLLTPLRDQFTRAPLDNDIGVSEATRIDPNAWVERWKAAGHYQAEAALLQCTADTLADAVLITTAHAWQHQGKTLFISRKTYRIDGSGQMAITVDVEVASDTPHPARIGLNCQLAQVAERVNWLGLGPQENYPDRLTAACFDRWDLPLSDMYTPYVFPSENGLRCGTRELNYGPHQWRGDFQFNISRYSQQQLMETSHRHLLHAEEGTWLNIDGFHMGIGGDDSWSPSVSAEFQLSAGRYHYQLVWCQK

Galanin receptor type 2 = Galanin receptor type 2 (Homo sapiens, UniProt O43603); test: Dose Response cell-based high-throughput screening assay to identify antagonists of galanin receptor 2 (GALR2). [Related pubchem assays: 828, 866 ]; assay type: functional
Sequence of Galanin receptor type 2 (O43603 whole entry): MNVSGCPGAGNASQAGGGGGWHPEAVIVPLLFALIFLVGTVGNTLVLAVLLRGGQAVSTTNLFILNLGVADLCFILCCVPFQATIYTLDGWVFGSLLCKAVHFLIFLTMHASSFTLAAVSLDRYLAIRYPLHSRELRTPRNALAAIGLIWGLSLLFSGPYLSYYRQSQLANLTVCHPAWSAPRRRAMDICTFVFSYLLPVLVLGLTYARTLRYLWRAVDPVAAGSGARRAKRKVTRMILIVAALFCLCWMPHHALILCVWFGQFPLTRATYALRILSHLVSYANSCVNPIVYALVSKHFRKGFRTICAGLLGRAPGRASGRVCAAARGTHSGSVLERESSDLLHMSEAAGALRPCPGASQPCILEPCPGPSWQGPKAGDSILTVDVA

[7] = THP-1 cell cytotoxicity, dose response, cytotoxicity control for non-replicating M. tuberculosis project (AID 489025); assay type: functional
[8] = NIH-3T3 fibroblast cytotoxicity, dose response, cytotoxicity control, cell-based, fluorescence, Alamar Blue, secondary assay (AID 2327); assay type: functional;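 note: NIH-3T3 mouse fibroblasts cultured with fluconazole at 8 µg/mL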
[9] = C. albicans growth with fluconazole, confirmation, fluorescence, retest (AID 2467); assay type: functional, cell-based
[10] = molecular target: T2, Microphthalmia-associated transcription factor (Homo sapiens, UniProt O75030); test: TRPM1 promoter luciferase signal decrease, dose response, MITF inhibitor project, cell-based, SK-MEL-5, cherry-picked, set 3 (AID 493073); assay type: functional
T2 sequence (O75030 whole entry): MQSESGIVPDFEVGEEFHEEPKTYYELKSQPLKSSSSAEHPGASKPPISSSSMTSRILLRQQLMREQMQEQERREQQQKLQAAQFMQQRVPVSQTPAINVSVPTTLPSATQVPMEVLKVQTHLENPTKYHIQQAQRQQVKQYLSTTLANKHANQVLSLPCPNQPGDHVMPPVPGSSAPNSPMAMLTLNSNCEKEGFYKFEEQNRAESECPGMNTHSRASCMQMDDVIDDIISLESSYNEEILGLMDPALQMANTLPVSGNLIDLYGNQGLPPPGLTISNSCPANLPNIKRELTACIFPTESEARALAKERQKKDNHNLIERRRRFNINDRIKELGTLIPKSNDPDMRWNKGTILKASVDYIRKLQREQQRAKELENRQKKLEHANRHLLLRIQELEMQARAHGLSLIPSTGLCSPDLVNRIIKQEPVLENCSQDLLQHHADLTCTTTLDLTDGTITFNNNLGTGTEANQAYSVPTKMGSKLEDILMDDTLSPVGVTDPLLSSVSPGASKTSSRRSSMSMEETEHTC

cells [11] = assay type: functional
A-375 [12] = test: MITF: Counter assay: A375 proliferation Measured in Cell-Based System Using Plate Reader - 2084-03_Inhibitor_Dose_DryPowder_Activity. [Related pubchem assays (depositor defined):AID488944]; assay type: functional; details: Homo sapiens
[13] = molecular target: Heat shock protein HSP 90-alpha (Homo sapiens, UniProt P07900); assay type: functional, organism-based
[14] = molecular target: T3, Rac GTPase-activating protein 1 (Homo sapiens, UniProt Q9H0H5); test: MgcRacGAP GTPase-activating activity inhibitors, confirmation, biochemical, ADP Hunter fluorescence, primary and confirmatory (AID 624330); assay type: functional
T3 sequence (Q9H0H5 whole entry): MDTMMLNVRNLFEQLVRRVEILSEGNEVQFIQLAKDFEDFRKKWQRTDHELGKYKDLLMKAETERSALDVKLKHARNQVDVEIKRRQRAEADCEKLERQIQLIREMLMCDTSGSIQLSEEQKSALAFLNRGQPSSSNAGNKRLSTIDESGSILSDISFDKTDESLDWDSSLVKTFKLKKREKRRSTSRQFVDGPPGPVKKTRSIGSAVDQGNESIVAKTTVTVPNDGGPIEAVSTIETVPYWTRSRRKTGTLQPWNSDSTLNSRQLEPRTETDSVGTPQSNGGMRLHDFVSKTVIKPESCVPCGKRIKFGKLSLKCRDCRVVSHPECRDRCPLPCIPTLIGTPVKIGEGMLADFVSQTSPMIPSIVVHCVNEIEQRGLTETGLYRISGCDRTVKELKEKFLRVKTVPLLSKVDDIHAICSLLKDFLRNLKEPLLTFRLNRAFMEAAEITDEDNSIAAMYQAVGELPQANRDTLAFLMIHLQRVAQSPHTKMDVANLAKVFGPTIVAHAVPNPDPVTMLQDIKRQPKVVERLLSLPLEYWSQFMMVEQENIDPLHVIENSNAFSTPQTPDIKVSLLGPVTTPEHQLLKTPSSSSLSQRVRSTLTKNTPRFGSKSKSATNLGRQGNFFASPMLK

HeLa = test: HeLa cell cytotoxicity, dose response, cytotoxicity control for MITF activator project, CellTiter-Glo luminescence, cherry-pick samples (AID 540259); assay type: functional, cell-based; details: Homo sapiens
[15] = Late-stage probe development counterscreen for inhibitors of the Hepatitis C Virus non-structural protein 3 helicase (NS3): luminescence-based cell-based dose response assay to determine whether compounds that inhibit replication of HCV RNA replicon are cytotoxic. [Related pubchem assays (depositor defined):AID1800, AID1830, AID1845, AID1943, AID1945, AID2172, AID2173, AID2474, AID2476]; assay type: functional
NS3 = NS3 (Hepatitis C virus, UniProt A3EZJ3); test: PubChem AID 2173; set-up: species or system Hepacivirus hominis
Sequence of NS3 (A3EZJ3 whole entry): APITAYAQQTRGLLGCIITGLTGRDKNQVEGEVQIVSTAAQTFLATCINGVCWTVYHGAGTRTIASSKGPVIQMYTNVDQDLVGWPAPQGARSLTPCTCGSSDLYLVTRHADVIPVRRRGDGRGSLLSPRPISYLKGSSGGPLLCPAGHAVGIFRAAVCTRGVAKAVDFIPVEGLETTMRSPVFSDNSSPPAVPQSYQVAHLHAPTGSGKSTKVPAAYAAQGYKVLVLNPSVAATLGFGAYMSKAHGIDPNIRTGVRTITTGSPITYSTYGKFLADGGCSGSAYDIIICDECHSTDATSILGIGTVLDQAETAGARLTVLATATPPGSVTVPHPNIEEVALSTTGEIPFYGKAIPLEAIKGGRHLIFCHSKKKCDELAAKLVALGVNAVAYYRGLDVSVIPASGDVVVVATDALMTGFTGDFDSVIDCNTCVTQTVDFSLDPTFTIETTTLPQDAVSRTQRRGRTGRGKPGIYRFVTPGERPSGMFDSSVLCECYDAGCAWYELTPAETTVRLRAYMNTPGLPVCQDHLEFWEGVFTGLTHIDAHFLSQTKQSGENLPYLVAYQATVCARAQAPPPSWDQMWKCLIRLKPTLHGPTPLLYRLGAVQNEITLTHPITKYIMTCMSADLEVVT

Question: What does the source list for `COc1ccc(CCNc2ncnc3sccc23)cc1OC`?
Answer: AC50 [1]: < 0.26 µM (active); AC50 (INS1): 0.71 µM (active); IC50 (Galanin receptor type 3): 0.371 µM (active); IC50 [2]: 1.97 µM (active); IC50 [3]: > 80 µM (inactive); AC50 [4]: 1.5 µM (active); EC50 (cells [5]): > 29.9 µM (inactive); IC50 (Jurkat): > 80 µM (inactive)

Question: For `CCOC(=O)c1cc([N+](=O)[O-])c([N+](=O)[O-])cc1NC(C)=O`, which AC50 (A-375 [6]) is on record?
Answer: > 35 µM (active)

Question: What about the IC50 (Beta-galactosidase) of the same compound?
Answer: > 66.6 µM (inactive)

Question: And the IC50 (Galanin receptor type 2)?
Answer: 10.3 µM (not active)

Question: What about the CC50 [7] of the same compound?
Answer: 13.1 µM (active)

Question: And the EC50 [8]?
Answer: 4.65 µM (inconclusive)

Question: And the EC50 [9]?
Answer: 2.01 µM (active)

Question: What about the AC50 [10] of the same compound?
Answer: 24.2 µM (active)

Question: What about the IC50 (cells [11]) of the same compound?
Answer: 9.64 µM (active)

Question: What about the AC50 (A-375 [12]) of the same compound?
Answer: > 35 µM (active)

Question: What about the AC50 [13] of the same compound?
Answer: 2.59 µM (active)

Question: What does the source list for `O=C(Nc1ccc(O)cc1)c1cc2ccccc2c(=O)s1`?
Answer: IC50 [14]: 23.3 µM (active); AC50 (HeLa): > 350 µM (inactive)

Question: Which CC50 [15] does the source give for `CCOc1cccc(C2C(C(=O)c3ccc(C)o3)=C(O)C(=O)N2Cc2ccccc2)c1` (configuration not stated) here?
Answer: > 100 µM (inactive)

Question: What about the IC50 (NS3) of the same compound?
Answer: 4.29 µM (active)
